pEC50, pIC50: −log10 of the molar value.
Key:
[1] = Bacterial membrane permeabilization assay (carboxyfluorescein leakage from liposomes); format: biochemical; conditions: large unilamellar liposomes from E. coli phospholipid extract, 45 min, 37 °C
[2] = molecular target: cellular LPS receptors; set-up: method as in PMID 24281661; conditions: read-out: IC50 inhibition of binding of bacterial LPS to cellular receptors; cited from earlier work

polymyxin B
pEC50 [1]: 6.00
pEC50 ([1]; listed as Polymyxin B): ~6.00
pIC50 [2]: 8.44

Reference: publication PMC7684578, “Isopedopeptins A–H: Cationic Cyclic Lipodepsipeptides from Pedobacter cryoconitis UP508 Targeting WHO Top-Priority Carbapenem-Resistant Bacteria” (ACS Chemical Biology, 2020)
